In ChEMBL document CHEMBL1139689, “Discovery and preliminary structure-activity relationship studies of novel benzotriazine based compounds as Src inhibitors” (Bioorg Med Chem Lett, 2006) one finds IC50 data, which are given here for 25 compounds.

The target of assay [1] is Proto-oncogene tyrosine-protein kinase Src (Homo sapiens, UniProt P12931).
The target of a further assay is Angiopoietin-1 receptor (Homo sapiens, UniProt Q02763). The assay can be described thus: Inhibition of Tie2.
For assay [2], the target named is Tyrosine-protein kinase ABL1 (Homo sapiens, UniProt P00519, T315I). The assay is described as follows: Inhibition of Abl T315I mutant.
For assay [3], the target named is Tyrosine-protein kinase CSK (Homo sapiens, UniProt P41240). The assay is described as follows: Inhibition of CSK.
Tyrosine-protein kinase CSK, sequence (P41240 whole entry): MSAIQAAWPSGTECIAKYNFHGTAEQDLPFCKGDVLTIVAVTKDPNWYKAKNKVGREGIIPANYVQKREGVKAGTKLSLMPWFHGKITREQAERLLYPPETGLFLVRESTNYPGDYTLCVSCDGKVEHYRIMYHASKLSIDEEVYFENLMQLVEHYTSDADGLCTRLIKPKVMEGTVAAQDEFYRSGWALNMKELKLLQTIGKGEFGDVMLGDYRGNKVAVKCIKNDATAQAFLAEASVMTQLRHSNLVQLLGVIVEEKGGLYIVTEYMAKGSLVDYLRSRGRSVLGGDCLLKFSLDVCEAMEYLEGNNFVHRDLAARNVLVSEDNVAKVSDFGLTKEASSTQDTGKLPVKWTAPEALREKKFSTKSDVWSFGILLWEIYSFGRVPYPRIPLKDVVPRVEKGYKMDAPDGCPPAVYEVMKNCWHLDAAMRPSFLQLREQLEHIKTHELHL
The target of assay [4] is Tyrosine-protein kinase ABL1 (Homo sapiens, UniProt P00519). The assay is described as follows: Inhibition of Abl.
Assay [5] has as its target Serine/threonine-protein kinase RAF and Dual specificity mitogen-activated protein kinase kinase 1 (Raf/MEK) (Homo sapiens, UniProt P04049+Q02750). The assay is described as follows: Inhibition of Raf1-MEK1. It counts as protein assay.
Assay [6] addresses Vascular endothelial growth factor receptor 2 (Homo sapiens, UniProt P35968). The assay can be described thus: Inhibition of VEGFR2.
Assay [7] deals with RAF proto-oncogene serine/threonine-protein kinase (Homo sapiens, UniProt P04049). The assay can be described thus: Inhibition of Raf1 kinase.
Assay [8] deals with Tyrosine-protein kinase Blk (Homo sapiens, UniProt P51451). The assay can be described thus: Inhibition of Blk.
Assay [9] concerns the target Tyrosine-protein kinase Fyn (Homo sapiens, UniProt P06241). The assay can be described thus: Inhibition of Fyn.
Assay [10] has as its target Tyrosine-protein kinase Lyn (Homo sapiens, UniProt P07948). The assay can be described thus: Inhibition of Lyn.
In assay [11] the target is Ribosomal protein S6 kinase beta-1 (Homo sapiens, UniProt P23443). The assay is described as follows: Inhibition of p70S6K.
Ribosomal protein S6 kinase beta-1, sequence (P23443 whole entry): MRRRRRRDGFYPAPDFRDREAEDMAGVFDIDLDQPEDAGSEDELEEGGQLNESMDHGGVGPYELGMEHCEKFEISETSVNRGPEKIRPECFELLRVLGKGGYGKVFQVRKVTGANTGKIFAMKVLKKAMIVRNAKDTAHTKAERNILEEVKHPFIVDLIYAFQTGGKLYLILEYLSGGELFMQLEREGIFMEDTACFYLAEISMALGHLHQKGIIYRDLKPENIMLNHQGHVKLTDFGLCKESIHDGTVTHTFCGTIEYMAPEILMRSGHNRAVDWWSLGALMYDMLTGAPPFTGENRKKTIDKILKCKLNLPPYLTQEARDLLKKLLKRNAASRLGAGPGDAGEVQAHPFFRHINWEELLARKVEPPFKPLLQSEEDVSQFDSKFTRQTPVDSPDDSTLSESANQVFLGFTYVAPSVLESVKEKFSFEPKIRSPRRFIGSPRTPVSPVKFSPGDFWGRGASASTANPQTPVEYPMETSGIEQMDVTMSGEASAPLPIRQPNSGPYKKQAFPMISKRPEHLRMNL

Molecules are shown by their SMILES.

The IC50 is the midpoint of a concentration-inhibition curve. High values mean weaker potency in that assay, low ones greater potency in that assay.

Proto-oncogene tyrosine-protein kinase Src, sequence (P12931 2-536 limits assumed): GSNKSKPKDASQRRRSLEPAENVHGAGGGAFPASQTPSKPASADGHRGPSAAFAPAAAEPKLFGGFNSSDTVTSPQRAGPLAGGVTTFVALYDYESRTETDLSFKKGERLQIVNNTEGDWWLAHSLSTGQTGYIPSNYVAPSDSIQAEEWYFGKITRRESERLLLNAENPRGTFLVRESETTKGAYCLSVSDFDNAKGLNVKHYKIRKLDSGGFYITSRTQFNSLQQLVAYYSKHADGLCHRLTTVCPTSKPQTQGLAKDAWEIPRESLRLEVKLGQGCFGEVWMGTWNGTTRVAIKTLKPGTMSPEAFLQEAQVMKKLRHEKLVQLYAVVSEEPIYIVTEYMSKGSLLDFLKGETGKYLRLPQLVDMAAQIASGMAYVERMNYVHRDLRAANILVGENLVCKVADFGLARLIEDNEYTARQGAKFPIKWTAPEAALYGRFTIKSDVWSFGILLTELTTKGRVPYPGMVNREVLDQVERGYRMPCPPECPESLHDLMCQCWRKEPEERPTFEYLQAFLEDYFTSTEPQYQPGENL
Tyrosine-protein kinase Fyn, sequence (P06241 whole entry): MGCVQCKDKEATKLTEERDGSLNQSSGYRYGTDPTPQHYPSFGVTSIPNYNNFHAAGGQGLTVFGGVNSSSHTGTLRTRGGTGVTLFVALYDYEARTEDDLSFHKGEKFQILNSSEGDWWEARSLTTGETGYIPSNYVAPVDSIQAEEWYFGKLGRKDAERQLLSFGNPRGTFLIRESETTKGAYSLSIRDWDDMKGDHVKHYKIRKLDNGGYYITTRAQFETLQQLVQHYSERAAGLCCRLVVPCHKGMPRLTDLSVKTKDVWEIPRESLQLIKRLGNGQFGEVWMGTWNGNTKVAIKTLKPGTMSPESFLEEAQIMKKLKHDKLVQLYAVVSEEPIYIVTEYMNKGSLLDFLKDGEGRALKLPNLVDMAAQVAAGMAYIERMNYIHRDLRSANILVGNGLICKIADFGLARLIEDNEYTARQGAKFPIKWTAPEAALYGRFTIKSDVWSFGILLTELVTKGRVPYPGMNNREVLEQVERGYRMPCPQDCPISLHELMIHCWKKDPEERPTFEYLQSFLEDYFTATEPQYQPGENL
Tyrosine-protein kinase Lyn, sequence (P07948 whole entry): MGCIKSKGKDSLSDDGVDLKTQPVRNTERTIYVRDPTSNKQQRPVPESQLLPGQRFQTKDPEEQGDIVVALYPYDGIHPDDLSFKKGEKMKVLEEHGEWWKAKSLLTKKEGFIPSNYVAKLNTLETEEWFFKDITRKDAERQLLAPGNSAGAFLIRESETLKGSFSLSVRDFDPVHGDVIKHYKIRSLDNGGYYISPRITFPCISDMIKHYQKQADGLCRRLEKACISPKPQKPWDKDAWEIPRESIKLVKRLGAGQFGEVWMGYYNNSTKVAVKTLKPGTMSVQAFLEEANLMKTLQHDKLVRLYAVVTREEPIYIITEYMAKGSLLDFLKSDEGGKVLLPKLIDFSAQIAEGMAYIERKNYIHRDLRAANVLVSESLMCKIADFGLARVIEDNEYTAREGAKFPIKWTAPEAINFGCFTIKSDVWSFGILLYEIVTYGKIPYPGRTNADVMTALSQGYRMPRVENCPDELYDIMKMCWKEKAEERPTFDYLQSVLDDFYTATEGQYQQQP
Angiopoietin-1 receptor, sequence (Q02763 whole entry): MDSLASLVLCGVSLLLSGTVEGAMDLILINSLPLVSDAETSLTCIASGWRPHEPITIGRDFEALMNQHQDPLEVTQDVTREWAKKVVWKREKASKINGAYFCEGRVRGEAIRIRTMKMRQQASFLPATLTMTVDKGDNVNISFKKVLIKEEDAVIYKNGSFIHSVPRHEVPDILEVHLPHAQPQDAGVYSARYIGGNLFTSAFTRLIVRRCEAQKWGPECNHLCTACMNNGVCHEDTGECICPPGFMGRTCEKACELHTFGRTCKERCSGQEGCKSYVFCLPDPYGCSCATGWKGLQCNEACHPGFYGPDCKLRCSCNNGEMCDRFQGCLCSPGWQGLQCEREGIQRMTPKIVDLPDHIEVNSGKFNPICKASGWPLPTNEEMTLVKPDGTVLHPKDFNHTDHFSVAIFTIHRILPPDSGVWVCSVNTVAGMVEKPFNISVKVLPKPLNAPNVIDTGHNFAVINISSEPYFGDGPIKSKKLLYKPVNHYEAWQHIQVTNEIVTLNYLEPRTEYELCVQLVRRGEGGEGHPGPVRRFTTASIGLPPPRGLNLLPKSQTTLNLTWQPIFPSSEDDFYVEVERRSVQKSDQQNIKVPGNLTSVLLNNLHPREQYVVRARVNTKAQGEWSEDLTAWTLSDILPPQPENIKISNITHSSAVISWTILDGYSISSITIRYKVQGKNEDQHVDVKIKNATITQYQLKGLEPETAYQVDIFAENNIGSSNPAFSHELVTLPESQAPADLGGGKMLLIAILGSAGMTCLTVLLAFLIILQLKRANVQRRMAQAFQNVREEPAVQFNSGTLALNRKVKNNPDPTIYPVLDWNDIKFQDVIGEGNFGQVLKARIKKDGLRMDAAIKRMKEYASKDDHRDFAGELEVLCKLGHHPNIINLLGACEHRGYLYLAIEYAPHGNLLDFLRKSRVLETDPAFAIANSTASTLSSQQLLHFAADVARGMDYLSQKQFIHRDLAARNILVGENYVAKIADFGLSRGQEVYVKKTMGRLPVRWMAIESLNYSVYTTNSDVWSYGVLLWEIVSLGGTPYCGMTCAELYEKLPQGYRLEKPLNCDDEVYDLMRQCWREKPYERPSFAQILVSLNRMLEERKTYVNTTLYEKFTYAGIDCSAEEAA
Vascular endothelial growth factor receptor 2, sequence (P35968 whole entry): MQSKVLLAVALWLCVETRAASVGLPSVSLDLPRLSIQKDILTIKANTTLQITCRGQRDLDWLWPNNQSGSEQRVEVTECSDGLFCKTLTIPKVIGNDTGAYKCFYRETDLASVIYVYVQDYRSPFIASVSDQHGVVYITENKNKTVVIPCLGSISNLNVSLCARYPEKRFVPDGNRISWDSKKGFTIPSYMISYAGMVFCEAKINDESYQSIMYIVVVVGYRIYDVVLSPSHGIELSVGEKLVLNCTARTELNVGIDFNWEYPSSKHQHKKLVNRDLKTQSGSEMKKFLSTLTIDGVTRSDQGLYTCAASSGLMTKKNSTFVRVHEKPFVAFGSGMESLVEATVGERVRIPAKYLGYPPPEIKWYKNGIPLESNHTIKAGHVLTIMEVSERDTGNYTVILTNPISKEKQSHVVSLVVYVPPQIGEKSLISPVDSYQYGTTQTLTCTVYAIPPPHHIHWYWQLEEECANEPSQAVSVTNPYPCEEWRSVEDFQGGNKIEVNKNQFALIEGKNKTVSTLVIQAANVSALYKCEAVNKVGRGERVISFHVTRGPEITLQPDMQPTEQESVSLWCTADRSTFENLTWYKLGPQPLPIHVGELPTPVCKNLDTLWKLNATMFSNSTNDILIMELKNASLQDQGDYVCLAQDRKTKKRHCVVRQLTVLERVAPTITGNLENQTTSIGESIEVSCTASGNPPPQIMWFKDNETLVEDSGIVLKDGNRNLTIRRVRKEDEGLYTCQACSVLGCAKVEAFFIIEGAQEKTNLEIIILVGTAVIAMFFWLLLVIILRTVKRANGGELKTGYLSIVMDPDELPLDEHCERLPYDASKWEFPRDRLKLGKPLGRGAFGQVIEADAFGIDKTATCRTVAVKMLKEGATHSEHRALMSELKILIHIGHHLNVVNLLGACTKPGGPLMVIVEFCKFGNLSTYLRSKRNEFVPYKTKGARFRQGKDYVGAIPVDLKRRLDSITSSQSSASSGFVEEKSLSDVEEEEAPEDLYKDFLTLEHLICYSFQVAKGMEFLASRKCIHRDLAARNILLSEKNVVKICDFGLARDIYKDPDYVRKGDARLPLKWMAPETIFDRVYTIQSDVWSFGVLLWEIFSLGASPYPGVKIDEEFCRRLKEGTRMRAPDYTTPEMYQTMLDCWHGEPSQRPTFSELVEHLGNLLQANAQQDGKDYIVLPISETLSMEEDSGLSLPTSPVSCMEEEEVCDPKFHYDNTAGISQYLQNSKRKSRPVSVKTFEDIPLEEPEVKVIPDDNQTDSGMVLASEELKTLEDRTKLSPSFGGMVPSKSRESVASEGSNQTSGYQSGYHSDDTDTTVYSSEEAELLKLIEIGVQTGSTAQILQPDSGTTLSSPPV

In [1], `Cc1cccc(C)c1-c1cc(C)c2nc(Nc3cccc(S(=O)(=O)N4CCNCC4)c3)nnc2c1` displayed a half-inhibitory concentration (IC50) of 480 nM.

`Cc1cc(-c2c(Cl)cccc2Cl)cc2nnc(N)nc12` returned a half-inhibitory concentration (IC50) in assay [1] of 3600 nM.

Regarding `Cc1cc(C)c(-c2cc(C)c3nc(Nc4ccccc4)nnc3c2)c(C)c1`, the half-maximal inhibitory concentration (IC50) in assay [1] is over 50000 nM.

As to `Cc1cccc(C)c1-c1cc(C)c2nc(Nc3cccc4cccnc34)nnc2c1`, the IC50 in [1] was over 50000 nM.

For the compound `Cc1cccc(C)c1-c1cc(C)c2nc(N)nnc2c1`, the IC50 in assay [1] is 7400 nM.

As to `Cc1cc(-c2cc(O)ccc2Cl)cc2nnc(N)nc12`, the IC50 in [1] came to 1500 nM.

The compound `CCOC1CN(C)CCN1c1cccc(Nc2nnc3cc(-c4c(C)cccc4C)cc(C)c3n2)c1` (stereo not given) registered an IC50 in assay [1] of 41 nM.

For the compound `Nc1nnc2cc(-c3ccccc3)ccc2n1`, the IC50 in [1] was over 50000 nM.

As for `Cc1cccc(Nc2nnc3cc(-c4c(C)cccc4C)cc(C)c3n2)c1C`, the IC50 in [1] was over 50000 nM.

`CCN(CC)CCOc1ccc(Nc2nnc3cc(-c4c(C)cccc4C)cc(C)c3n2)cc1` registered an IC50 in assay [1] of 10 nM.

Regarding `Cc1cccc(C)c1-c1cc(C)c2nc(Nc3ccccn3)nnc2c1`, the half-maximal inhibitory concentration (IC50) in [1] was over 50000 nM.

In turn, `CCCCc1ccc(Nc2nnc3cc(-c4c(C)cccc4C)cc(C)c3n2)cc1` returned an IC50 in [1] of over 50000 nM.

Turning to `Cc1cccc(C)c1-c1cc(C)c2nc(Nc3ccncc3)nnc2c1`, in assay [1], it took 40 nM to reach half-maximal inhibition (IC50).

The compound `CC(=O)Nc1nnc2cc(-c3c(C)cccc3C)cc(C)c2n1` displayed a half-inhibitory concentration (IC50) in assay [1] of over 50000 nM.

The compound `Cc1cccc(C)c1-c1ccc2nc(N)nnc2c1` came in with an IC50 in assay [1] of 2200 nM.

Compound `Cc1cccc(C)c1-c1cc(C)c2nc(Nc3ccccc3)nnc2c1` yielded a half-inhibitory concentration (IC50) in assay [1] of 410 nM.

Turning to `Cc1ccc(C)c(Nc2nnc3cc(-c4c(C)cccc4C)cc(C)c3n2)c1`, the IC50 in assay [1] is over 50000 nM.

As to `CCCOC1CN(C)CCN1c1cccc(Nc2nnc3cc(-c4c(C)cccc4C)cc(C)c3n2)c1` (stereo not given), it took 40 nM to reach half-maximal inhibition in assay [1] (IC50).

`Cc1cc(-c2ccccc2Cl)cc2nnc(N)nc12` gave an IC50 in [1] of over 50000 nM.

In the case of `COc1ccccc1Nc1nnc2cc(-c3c(C)cccc3C)cc(C)c2n1`, the IC50 in [1] is over 50000 nM.

`Nc1nnc2cc(-c3ccc4c(c3)OCO4)ccc2n1` yielded an IC50 in [1] of 12000 nM.

In turn, `Nc1nnc2cc(-c3ccc4ccccc4c3)ccc2n1` came in with an IC50 in assay [1] of 5200 nM.

As for `CCOC1CN(c2ccc(Nc3nnc4cc(-c5c(C)cccc5C)cc(C)c4n3)cc2)CCO1` (stereo not given), the 50% inhibitory concentration (IC50) in assay [1] turned out to be 32 nM.

For `Cc1cccc(C)c1-c1cc(C)c2nc(Nc3ccc(OCCN4CCCC4)cc3)nnc2c1`, the IC50 stood at 678 nM at Angiopoietin-1 receptor; 5990 nM in [2]; 659 nM in [3]; 20 nM in [4]; 69 nM in [5]; 555 nM in assay [6]. Further, the IC50 came to 68 nM in [7]; 1320 nM in assay [8]; 23 nM in assay [9]; 21 nM in assay [10]; 2710 nM in assay [11].

Consider `Cc1ccc(Nc2nnc3cc(-c4c(C)cccc4C)cc(C)c3n2)c(C)c1`, for which, in assay [1], the half-maximal inhibitory concentration (IC50) is over 50000 nM.
